Results: patent EP4636093A1, “TARGETING MAPK-ERK PATHWAY FOR ENHANCING NUCLEIC ACID DELIVERY” (priority 2024, dated 2025)
Like-named read-outs stand apart in the source and are kept apart here.

How the values were obtained:
T cells = assay type: cell-based, Human; details: for increase in CAR expression: with vs without 400 nM deucravacitinib
human T lymphocytes = assay type: cell-based; details: AAV6 (GFP); 20 µM Vx-11e compared to untreated cells; average, three donors

Compound	optimal doses (T cells) [µM]	VSV-LV mediated transduction efficiency increase (T cells; VSV-LV, 20 µM VX-11e, average, three donors)	AAV6 mediated transduction efficiency increase (human T lymphocytes)	increase in CAR expression (T cells; CD4-LV, CD4 T cells, average, three donors)	increase in CAR expression (T cells; CD8-LV, CD8 T cells, average, three donors) [fold]	optimal dose (T cells; treatment of cells for 24 hours, CAR expression after LV transduction (one donor)) [nM]
Cc1cnc(Nc2ccc(F)cc2Cl)nc1-c1c[nH]c(C(=O)N[C@H](CO)c2cccc(Cl)c2)c1 [VX-11e]	20	up to 1.8 fold	up to 2.1 fold	–	–	–
CC(C)Nc1cc(-c2c[nH]c(C(=O)N[C@H](CO)c3cccc(Cl)c3)c2)c(Cl)cn1 [ulixertinib]	5	–	–	–	–	–
Deucravacitinib	–	–	–	up to 1.7 fold	≤ 3.6	400
